Data as given in paper PMC2869248 (Psychopharmacology, 2010).
pEC50, pKi: −log10 of the molar value.

How the values were obtained:
[1] = target: T1, cloned human KOR (hKOR), kappa-opioid receptor (Homo sapiens, UniProt P41145)
[2] = target: T1, cloned human KOR (hKOR), kappa-opioid receptor; test: biochemical

T1 sequence (P41145 whole entry): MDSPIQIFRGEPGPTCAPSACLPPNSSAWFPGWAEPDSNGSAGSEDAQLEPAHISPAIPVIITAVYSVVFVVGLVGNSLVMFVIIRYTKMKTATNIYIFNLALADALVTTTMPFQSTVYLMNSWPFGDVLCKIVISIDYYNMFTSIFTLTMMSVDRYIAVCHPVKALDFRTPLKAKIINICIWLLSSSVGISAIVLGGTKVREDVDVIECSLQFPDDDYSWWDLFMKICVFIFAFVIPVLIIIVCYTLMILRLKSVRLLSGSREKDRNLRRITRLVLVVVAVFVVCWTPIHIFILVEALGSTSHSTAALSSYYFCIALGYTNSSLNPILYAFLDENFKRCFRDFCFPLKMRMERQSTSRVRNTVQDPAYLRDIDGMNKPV

CNC1(c2ccccc2Cl)CCCCC1=O (centres unmarked) [ketamine]
pKi [1]: 4.60 | pEC50 [2]: 4.54
